# From US20050187389A1, “Pyrrolopyrimidine derivatives and analogs and their use in the treatment and prevention of diseases” (Ambit Biosciences Corporation, priority 2004, published 2005)
# Legend:
# ABL1 = target: T1, ABL1 (Homo sapiens, UniProt P00519); assay: ABL1 (DKIN) phage-display competitive binding assay
# T1 construct: made in house
# T1 sequence (P00519 242-493 limits assumed): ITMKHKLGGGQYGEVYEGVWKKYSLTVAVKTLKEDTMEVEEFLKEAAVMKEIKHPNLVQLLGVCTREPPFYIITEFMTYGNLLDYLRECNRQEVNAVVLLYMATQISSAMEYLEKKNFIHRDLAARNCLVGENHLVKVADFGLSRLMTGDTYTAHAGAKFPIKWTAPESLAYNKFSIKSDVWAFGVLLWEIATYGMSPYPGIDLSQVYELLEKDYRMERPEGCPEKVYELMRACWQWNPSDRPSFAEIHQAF
# From the text: (§1) Methods for measuring binding affinities for interactions between small molecules and kinases including FLT3, c-KIT, ABL(T334I) [a.k.a. ABL(T315I)], VEGFR-2 (a.k.a. KDR), and EGFR are described in detail in U.S. application Ser. No. 10/873,835, which is incorporated by reference herein in its entirety. The components of the assays include human kinases expressed as fusions to T7 bacteriophage particles and immobilized ligands that bind to the ATP site of the kinases. […] If the test compound binds the kinase it competes with the immobilized ligand and prevents binding to the solid support. […] The results are read out by quantitating the amount of fusion protein bound to the solid support, which is accomplished by either traditional phage plaque assays or by quantitative PCR (qPCR) using the phage genome as a template. […] The concentration of test molecule that reduces the number of phage bound to the solid support by 50% is equal to the Kd for the interaction between the kinase and the test molecule. Typically, data are collected for twelve concentrations of test compound and, the resultant binding curve is fit to a non-cooperative binding isotherm to calculate Kd.
# (§2) Described in the exemplary assays below is data from binding with varying kinases. […] The term “ND” represents non-determined values.
# VEGFR-2 = target: T2, VEGFR-2 (Homo sapiens, UniProt P35968); assay: VEGFR-2 phage-display competitive binding assay
# T2 construct: made in house
# T2 sequence (P35968 20-1356): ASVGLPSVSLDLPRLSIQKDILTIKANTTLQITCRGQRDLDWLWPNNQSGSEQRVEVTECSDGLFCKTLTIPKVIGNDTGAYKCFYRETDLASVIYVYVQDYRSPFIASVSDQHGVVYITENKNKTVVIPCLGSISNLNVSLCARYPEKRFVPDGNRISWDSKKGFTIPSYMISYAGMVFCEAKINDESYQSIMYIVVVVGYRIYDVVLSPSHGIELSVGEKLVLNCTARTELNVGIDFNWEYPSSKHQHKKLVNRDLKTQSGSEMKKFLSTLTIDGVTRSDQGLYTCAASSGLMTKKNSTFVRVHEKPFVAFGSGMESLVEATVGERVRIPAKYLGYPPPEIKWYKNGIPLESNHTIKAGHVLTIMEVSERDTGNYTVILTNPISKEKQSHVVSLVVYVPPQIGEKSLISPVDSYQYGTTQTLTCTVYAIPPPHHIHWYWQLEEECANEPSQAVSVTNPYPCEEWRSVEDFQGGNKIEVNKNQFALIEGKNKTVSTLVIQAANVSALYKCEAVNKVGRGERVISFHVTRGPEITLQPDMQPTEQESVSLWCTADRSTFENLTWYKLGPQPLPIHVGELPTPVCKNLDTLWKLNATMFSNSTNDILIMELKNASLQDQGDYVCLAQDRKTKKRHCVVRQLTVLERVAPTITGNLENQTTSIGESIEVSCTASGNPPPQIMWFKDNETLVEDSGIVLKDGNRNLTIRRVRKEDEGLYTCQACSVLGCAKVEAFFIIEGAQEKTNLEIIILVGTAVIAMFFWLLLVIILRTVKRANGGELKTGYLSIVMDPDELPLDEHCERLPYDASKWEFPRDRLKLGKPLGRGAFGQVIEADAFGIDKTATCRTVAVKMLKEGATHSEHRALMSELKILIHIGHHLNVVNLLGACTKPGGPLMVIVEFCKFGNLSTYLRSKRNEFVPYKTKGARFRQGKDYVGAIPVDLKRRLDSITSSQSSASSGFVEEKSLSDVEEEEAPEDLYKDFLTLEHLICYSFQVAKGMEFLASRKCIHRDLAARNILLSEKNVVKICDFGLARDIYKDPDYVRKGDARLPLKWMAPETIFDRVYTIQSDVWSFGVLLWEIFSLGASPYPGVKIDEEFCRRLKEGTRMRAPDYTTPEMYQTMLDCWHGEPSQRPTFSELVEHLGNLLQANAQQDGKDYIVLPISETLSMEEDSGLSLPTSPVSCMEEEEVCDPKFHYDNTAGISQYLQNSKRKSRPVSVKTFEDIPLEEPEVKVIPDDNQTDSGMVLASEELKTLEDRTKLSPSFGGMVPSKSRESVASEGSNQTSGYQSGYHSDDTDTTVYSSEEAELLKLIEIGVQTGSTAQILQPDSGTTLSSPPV
# From the text: as §1, §2
# PDGFR-β = target: T3, PDGFR-β (Homo sapiens, UniProt P09619); assay: PDGFR-β (DKIN) phage-display competitive binding assay
# T3 construct: Kd for PDGFR-β (DKIN); made in house
# T3 sequence (P09619 600-962 limits assumed): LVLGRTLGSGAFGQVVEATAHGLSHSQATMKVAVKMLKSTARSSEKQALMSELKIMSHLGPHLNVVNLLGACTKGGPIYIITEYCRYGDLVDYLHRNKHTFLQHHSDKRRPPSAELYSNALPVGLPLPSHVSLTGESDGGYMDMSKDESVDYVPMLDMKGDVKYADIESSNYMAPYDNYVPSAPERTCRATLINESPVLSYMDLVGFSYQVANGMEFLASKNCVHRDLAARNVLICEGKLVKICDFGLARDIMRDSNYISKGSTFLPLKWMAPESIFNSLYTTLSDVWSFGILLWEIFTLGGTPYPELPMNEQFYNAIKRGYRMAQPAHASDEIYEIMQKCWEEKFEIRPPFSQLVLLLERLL
# From the text: as §1, §2
# Kd values for the interactions between PDGFR-β and candidate small molecule ligands were measured by a phage-display-based competitive binding assay that is described in detail in U.S. Ser. No. 10/406,797 filed 2 Apr. 2003 and incorporated herein by reference. Briefly, T7 phage displaying human PDGFR-β were incubated with an affinity matrix coated with known PDGFR-β inhibitor in the presence of various concentrations of the soluble competitor molecules. […] The Kd for the interaction between the soluble competitor molecule and PDGFR-β is equal to the concentration of soluble competitor molecule that causes a 50% reduction in the number of phage recovered in the eluate compared to a control sample lacking soluble competitor. Since this assay is generic, and any molecule can be used as a soluble competitor, we have determined Kd values for the interaction between PDGFR-β and several small molecules, including those shown below.
# FLT3 = target: T4, FLT3 (Homo sapiens, UniProt P36888); assay: FLT3 (DKIN) phage-display competitive binding assay
# T4 construct: made in house
# T4 sequence (P36888 610-943 limits assumed): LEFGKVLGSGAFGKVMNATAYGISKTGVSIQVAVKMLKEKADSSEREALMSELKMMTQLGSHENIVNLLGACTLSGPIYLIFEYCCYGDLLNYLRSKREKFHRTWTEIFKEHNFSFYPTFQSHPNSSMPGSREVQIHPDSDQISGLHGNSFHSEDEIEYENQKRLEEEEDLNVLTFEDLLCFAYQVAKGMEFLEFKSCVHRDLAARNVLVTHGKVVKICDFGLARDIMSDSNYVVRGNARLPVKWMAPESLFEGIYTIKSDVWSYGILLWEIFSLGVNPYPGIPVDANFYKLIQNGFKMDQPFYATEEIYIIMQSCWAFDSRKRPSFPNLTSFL
# From the text: as §1, §2
# MV4,11 cells [1] = assay: (MV 4,11) Cell Proliferation Assay with 0.5% Serum "CS0001"; assay type: cell-based; details: Homo sapiens
# Description: (§3) The ability of FLT3 kinase inhibitors to inhibit cellular proliferation was also examined. MV4:11 was a cell line derived from a patient with acute myelogenous leukemia. It expressed a mutant FLT3 protein that was constitutively active. […] Inhibition of FLT3 kinase activity prevented proliferation of these cells, and thus the MV4:11 cell line can be used a model for cellular activity of small molecule inhibitors of FLT3.
# (§4) FLT3 Assay using MV4,11 Cells
# (§5) MV4,11 cells were grown in an incubator @ 37° C. in 5% CO2 in Medium 2 (RPMI, 10% FBS, 4 mM glutamine, Penn/Strep). The cells were counted daily and the cell density was kept between 1e5 and 8e5 cells/ml.
# Day One: Enough cells were harvested for experiments to be conducted in 50 ml conical tubes. The harvested cells were spun at 500 g for 5 min at 4° C., the supernatant was then aspirated and the cells were resuspended in the starting volume of 1× PBS. The cells were again spun at 500 g for 5 min at 4° C. and the supernatant again aspirated. […]
# (§6) Day Two: The cells were counted and enough medium 3 was added to decrease density to 2e5 cells/ml. 50 ul (10,000 cells) was aliquoted into each well of a 96 well optical plate using multichannel pipetman. […]
# MV4,11 cells [2] = assay: FLT-3 cell assay, (MV 4,11) cell proliferation assay with 10% serum "CS0005"; assay type: cell-based, human
# Description: as §3, §4, §5
# Day One: Enough cells were harvested for experiments to be conducted in 50 ml conical tubes. The harvested cells were spun at 500 g for 5 min at 4° C., the supernatant was then aspirated and the cells were resuspended in the starting volume of 1× PBS. The cells were again spun at 500 g for 5 min at 4° C. and the supernatant again aspirated. The cells were then resuspended in medium 3 (DMEM w/glut, 10% FBS, Penn/Strep) to a density of 4e^5 cells/ml and incubated @ 37° C. in 5% CO2 O/N.
# as §6
Kd (PDGFR-β),SMILES,other results
,COc1ccc(-c2cc3c(N[C@@H](C)c4ccccc4)ncnc3n2C(C)C)cc1 [Compound D10],Kd (ABL1): 1000 to 10000 nM
,CC(Nc1ncnc2oc(-c3ccccc3)c(-c3ccccc3)c12)c1ccccc1 (stereo not shown) [Compound H3],Kd (VEGFR-2): > 10000 nM
100 to 1000 nM,COc1ccc(-c2cc3c(NCc4cccc(C)c4)ncnc3[nH]2)cc1 [Compound I4],
100 to 1000 nM,COC(=O)C(Nc1ncnc2[nH]c(-c3ccc(OC)cc3)cc12)c1ccccc1 (stereo not shown) [Compound I7],
1000 to 10000 nM,COc1ccc(-c2cc3c(NCCc4ccccc4)ncnc3[nH]2)cc1 [Compound I8],Kd (ABL1): 100 to 1000 nM
,C[C@H](Nc1ncnc2[nH]c(-c3ccc(O)cc3)cc12)c1ccccc1 [Compound I9],Kd (ABL1): 1000 to 10000 nM
100 to 1000 nM,COc1cccc(-c2cc3c(N[C@H](C)c4ccccc4)ncnc3[nH]2)c1 [Compound I10],
,COc1cccc(-c2cc3c(NCc4cccc(C)c4)ncnc3[nH]2)c1 [Compound I12],Kd (FLT3): > 10000 nM
100 to 1000 nM,COc1ccc(-c2cc3c(N[C@H](C)c4ccccc4)nc(N[C@@H](C)c4ccccc4)nc3[nH]2)cc1 [Compound M22],
100 to 1000 nM,C[C@@H](Nc1ncnc2c1cc(-c1ccc(O)cc1)n2C)c1ccccc1 [Compound Q2],
100 to 1000 nM,Cn1c(-c2ccc(O)cc2)cc2c(Nc3ccccc3Cl)ncnc21 [Compound Q3],
100 to 1000 nM,CCc1ccccc1Nc1ncnc2c1cc(-c1ccc(O)cc1)n2C [Compound Q4],
> 10000 nM,COc1ccc(-c2cc3c(Nc4cccc(O)c4)ncnc3[nH]2)cc1 [Compound S6],
> 10000 nM,COc1ccc(-c2cc3c(Nc4ccc(F)c(Cl)c4)ncnc3[nH]2)cc1 [Compound S7],
100 to 1000 nM,COc1ccc(-c2cc3c(Nc4ccc(F)cc4)ncnc3[nH]2)cc1 [Compound S9],
100 to 1000 nM,COc1ccc(-c2cc3c(Nc4cccc(C)c4)ncnc3[nH]2)cc1 [Compound S10],"IC50 (MV4,11 cells [1]): < 100 nM; activity in the FLT-3 cell assay, (MV 4,11) cell proliferation assay with 10% serum, ""CS0005"" (MV4,11 cells [2]): ++ (a Kd of 1,000 nM to 10,000 nM)"
1000 to 10000 nM,COC(=O)c1cccc(Nc2ncnc3[nH]c(-c4cccc(OC)c4)cc23)c1 [Compound S15],
1000 to 10000 nM,COc1cccc(-c2cc3c(Nc4cccc(O)c4)ncnc3[nH]2)c1 [Compound S16],Kd (FLT3): 100 to 1000 nM; Kd (ABL1): 100 to 1000 nM
,Cc1cc(C)cc(Nc2ncnc3[nH]c(-c4ccc(Br)cc4)cc23)c1 [Compound S39],"Kd (FLT3): > 10000 nM; IC50 (MV4,11 cells [1]): 100 to 1000 nM"
